According to patent US20230416298A1, “PRODRUGS OF NEUROACTIVE STEROIDS” (Brii Biosciences, Inc., priority 2020, published 2023):

Key:
[1] = Liver S9 stability; assay type: in vitro ADME; conditions: human liver S9, 37° C.; for half-life at 1 μM: time points up to 60 min; for Stability in Human Liver S9 Formation of parent compound: Yes/No
Procedure: Intermediate solution: Dilute 5 μL of compounds or controls (7-ethoxycoumarin) from stock solution (10 mM) with 495 μL MeOH (Conc.: 100 μM, 1% DMSO, 99% MeOH). Stop solution: Cold ACN (including 100 ng/mL Tolbutamide and Labetalol as internal standard). Add 2 μL test compound or control working solution/well to all plates (T0, T5, T10, T20, T30, T60, NCF60) except matrix blank. Add 600 μL/well stop solution (cold in 4° C., including 100 ng/mL Tolbutamide/100 ng/mL Labetalol) to terminate the TO plate, then put it on ice. Dispense 840 μL/well S9 solution to 96-well plate as reservoir according to plate map. Then add 100 μL/well to every plate by Apricot. Incubate S9 solution and compound at 37° C. for about 10 min except NCF60 and TO. After adding S9 solution and 98 μ LPB buffer to NCF60, incubate at 37° C. without pre-warming, start timer 1. After 60 min, add 600 μL/well stop solution to terminate the reaction. After pre-warming, dispense 760 μL/well cofactor solution to 96-well plate as reservoir according to plate map. Then add 98 μL/well to every plate by Apricot to start reaction. Incubate at 37° C., start timer 2, Add 600 μL/well stop solution (cold in 4° C., including 100 ng/mL Tolbutamide and Labetalol) to terminate the reaction. Samples are centrifuged at 4000 rpm for 20 min. While centrifuging, load 8×new 96-well plate with 300 μL HPLC water, then transfer 100 μL supernatant, mix with water for LC/MS/MS, transferred to Bioanalytical Services for LC-MS/MS analysis. Use equation of first order kinetics to calculate t1/2 and CL: Equation of first order kinetics: […]

[2] = Plasma stability; assay type: in vitro ADME; conditions: 37° C.; for Stability in Human Plasma Formation of parent compound: 2 μM, Yes/No; for half-life at 2 μM: pooled plasma, pH 7.4, human plasma, time points 0, 10, 30, 60 and 120 min
Procedure: The pooled frozen plasma was thawed in a water bath at 37° C. prior to experiment. Plasma was centrifuged at 4000 rpm for 5 min and the clots were removed if any. The pH will be adjusted to 7.4±0.1 if required.
Preparation of test compounds and positive control (propantheline bromide): 1 mM intermediate solution was prepared by diluting 10 μL of the stock solution with 90 μL MeOH; 1 mM intermediate of positive control Propantheline was prepared by diluting 10 μL of the stock solution with 90 μL ultrapure water. 100 μM dosing solution was prepared by diluting 20 μL of the intermediate solution (1 mM) with 180 μL MeOH. 98 μL of blank plasma was spiked with 2 μL of dosing solution (100 μM) to achieve 2 μM of the final concentration in duplicate and samples were incubated at 37° C. in a water bath. At each time point (0,10, 30, 60 and 120 min), 400 μL of stop solution (0.1% FA in MeOH containing 200 ng/mL tolbutamide and 200 ng/mL Labetalol) was added to precipitate protein and mixed thoroughly. Centrifuged sample plates at 4,000 rpm for 10 min. An aliquot of supernatant (100 μL) was transferred from each well to another plates.
Data analysis: The % remaining of test compound after incubation in plasma was calculated using following equation:
% Remaining=[…]×(PAR at appointed incubation time/PAR at T0 time)
where PAR is the peak area ratio of analyte versus internal standard (IS) (LC/MS/MS mobile phase condition: 0.1% Formic Acid in Water/0.1% Formic Acid in Acetonitrile. The appointed incubation time points are TO (0 min), Tn (n=0, 10, 30, 60, 120 min).

Row | Compound | half-life at 1 μM [1] [h] | Stability in Human Liver S9 Formation of parent compound [1] | Stability in Human Plasma Formation of parent compound [2] | half-life at 2 μM [2] [h]
1 | CCCCCCC(=O)O[C@@H]1CC[C@@]2(C)[C@@H](CC[C@@H]3[C@@H]2CC[C@]2(C)[C@@H](C(C)=O)CC[C@@H]32)C1 [Example 2, [(3R,5S,8R,9S,10S,13S,14S,17S)-17-acetyl-10,13-dimethyl-2,3,4,5,6,7,8,9,11,12,14,15,16,17-tetradecahydro-1H-cyclopenta[a]phenanthren-3-yl]heptanoate] | < 0.833 | No | No | > 3.33
2 | CCCCCC(=O)O[C@@H]1CC[C@@]2(C)[C@@H](CC[C@@H]3[C@@H]2CC[C@]2(C)[C@@H](C(C)=O)CC[C@@H]32)C1 [Example 1, [(3R,5S,8R,9S,10S,13S,14S,17S)-17-acetyl-10,13-dimethyl-2,3,4,5,6,7,8,9,11,12,14,15,16,17-tetradecahydro-1H-cyclopenta[a]phenanthren-3-yl]hexanoate] | < 0.833 | No | No | > 3.33
